In patent US20160296499A1, “Spiroindoline Antiparasitic Derivatives” (ZOETIS SERVICES LLC, priority 2013, published 2016):
Read-outs that look alike come from different tables or passages of the source.

How the values were obtained:
[1] = test system: Dirofilaria immitis microfilariae; experiment: Dirofilaria immitis, Microfilariae (DiMF) In Vitro Assay; details: Dirofilaria immitis
[2] = test system: Haemonchus contortus L3; experiment: Haemonchus contortus, Larvae Stage 3 (HcL3) In Vitro Assay; details: Haemonchus contortus
[3] = biological target: T1, bovine vesicular acetylcholine transporter (VAChT) (Bos taurus, UniProt E1BK36); experiment: Radioligand Binding Assay; details: Bovine binding Ki, CHO-K1 membranes with recombinant bovine VAChT, [3H]Compound X6 0.3 nM
T1 sequence (E1BK36 1-524): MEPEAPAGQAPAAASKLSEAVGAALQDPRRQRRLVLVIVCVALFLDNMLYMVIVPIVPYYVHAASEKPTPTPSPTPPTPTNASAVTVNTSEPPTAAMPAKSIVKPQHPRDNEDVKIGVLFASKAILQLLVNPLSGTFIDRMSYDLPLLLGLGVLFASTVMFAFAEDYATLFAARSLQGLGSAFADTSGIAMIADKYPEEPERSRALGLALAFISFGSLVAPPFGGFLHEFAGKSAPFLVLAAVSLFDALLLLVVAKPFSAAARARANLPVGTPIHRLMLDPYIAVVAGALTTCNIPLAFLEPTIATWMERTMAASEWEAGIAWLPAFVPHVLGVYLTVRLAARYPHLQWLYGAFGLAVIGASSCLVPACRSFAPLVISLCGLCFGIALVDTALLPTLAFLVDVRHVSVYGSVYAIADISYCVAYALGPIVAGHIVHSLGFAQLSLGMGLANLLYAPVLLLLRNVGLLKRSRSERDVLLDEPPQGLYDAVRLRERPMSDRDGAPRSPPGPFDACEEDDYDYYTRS

[4] = 72 h, read-out: Di MF, MEC, decrease in microfilariae motility by visual assessment, curve starting at 100 μM
[5] = 96 h, read-out: HcL3 MEC, Minimal Effective Concentration whereby worm motility is inhibited by approximately 70%, 37° C., tested 0.001-100 μM
[6] = 96 hours, 37° C., read-out: HcL3 MEC

| Compound | minimal effective concentration [1, 4] | minimal effective concentration [2, 5] | Ki [3] | minimal effective concentration ([1]; 72 hours, read-out: Di MF) | minimal effective concentration [2, 6] |
| --- | --- | --- | --- | --- | --- |
| O=C(NCc1ccnc(Cl)c1)N1CC2(CCN(C/C=C/c3ccc(C(F)(F)F)cc3)CC2)c2c1ccc(F)c2Cl [Example 164, (E)-4-chloro-N-((2-chloropyridin-4-yl)methyl)-5-fluoro-1′-(3-(4-(trifluoromethyl)phenyl)allyl)spiro[indoline-3,4′-piperidine]-1-carboxamide] | 5.3 µM | 12.4 µM | 311 nM |  |  |
| O=C(NCc1ccc(O)cc1)N1CC2(CCN(C/C=C/c3ccc(Cl)c(Cl)c3)CC2)c2c1ccc1scnc21 [Example 18, (E)-1-(3-(3,4-dichlorophenyl)allyl)-N-(4-hydroxybenzyl)spiro[piperidine-4,8′-thiazolo[4,5-e]indole]-6′(7′H)-carboxamide] | 43.5 µM | 100 µM | 2220 nM |  |  |
| COc1cc2c(cn1)C1(CCN(C/C=C/c3ccc(Cl)c(Cl)c3)CC1)CN2C(=O)NCc1ccnc(Cl)c1 [Example 65, (E)-N-((2-chloropyridin-4-yl)methyl)-1-(3-(3,4-dichlorophenyl)allyl)-6′-methoxyspiro[piperidine-4,3′-pyrrolo[3,2-c]pyridine]-1′(2′H)-carboxamide] | 1.8 µM | 3.3 µM | 49.4 nM |  |  |
| O=C(NCc1ccc([N+](=O)[O-])cc1)N1CC2(CCN(C/C=C/c3ccc(Cl)c(Cl)c3)CC2)c2c1ccc1scnc21 [Example 17, (E)-1-(3-(3,4-dichlorophenyl)allyl)-N-(4-nitrobenzyl)spiro[piperidine-4,8′-thiazolo[4,5-e]indole]-6′(7′H)-carboxamide] | 10 µM | 100 µM | 11600 nM |  |  |
| COc1ccc(/C=C/CN2CCC3(CC2)CN(C(=O)NCc2ccnc(Cl)c2)c2ccc4sc(C)nc4c23)cc1 [Example 46, (E)-N-((2-chloropyridin-4-yl)methyl)-1-(3-(4-methoxyphenyl)allyl)-2′-methylspiro[piperidine-4,8′-thiazolo[4,5-e]indole]-6′(7′H)-carboxamide] | 10 µM | > 100 µM | 883 nM |  |  |
| N#Cc1cc2c(cc1C(F)(F)F)N(C(=O)NCc1ccnc(Cl)c1)CC21CCN(C/C=C/c2ccc(Cl)c(Cl)c2)CC1 [Example 132, (E)-N-((2-chloropyridin-4-yl)methyl)-5-cyano-1′-(3-(3,4-dichlorophenyl)allyl)-6-(trifluoromethyl)spiro[indoline-3,4′-piperidine]-1-carboxamide] |  |  | 49.9 nM | 3.3 µM | 3.3 µM |
| O=C(NCc1ccnc(Cl)c1)N1CC2(CCN(C/C=C/c3ccc(Cl)cc3)CC2)c2c(OC(F)(F)F)cccc21 [Example 88, (E)-1′-(3-(4-chlorophenyl)allyl)-N-((2-chloropyridin-4-yl)methyl)-4-(trifluoromethoxy)spiro[indoline-3,4′-piperidine]-1-carboxamide] | 3.3 µM | 100 µM | 1130 nM |  |  |
| O=C(NCc1ccnc(Cl)c1)N1CC2(CCN(C/C=C/c3ccc(C(F)(F)F)cc3)CC2)c2ccc(C(F)(F)F)cc21 [Example 138, (E)-N-((2-chloropyridin-4-yl)methyl)-6-(trifluoromethyl)-1′-(3-(4-(trifluoromethyl)phenyl)allyl)spiro[indoline-3,4′-piperidine]-1-carboxamide] | 10 µM | 3.3 µM | 57.2 nM |  |  |
| CS(=O)(=O)c1ccc2c(c1)N(C(=O)NCc1ccnc(Cl)c1)CC21CCN(C/C=C/c2ccc(Cl)cc2)CC1 [Example 162, (E)-1′-(3-(4-chlorophenyl)allyl)-N-((2-chloropyridin-4-yl)methyl)-6-(methylsulfonyl)spiro[indoline-3,4′-piperidine]-1-carboxamide] | 10 µM | 10 µM | 23.4 nM |  |  |
| O=C(NCc1ccnc(Cl)c1)N1CC2(CCN(C/C=C/c3ccc(Cl)cc3)CC2)c2cc(-c3nccs3)ccc21 [Example 81, (E)-1′-(3-(4-chlorophenyl)allyl)-N-((2-chloropyridin-4-yl)methyl)-5-(thiazol-2-yl)spiro[indoline-3,4′-piperidine]-1-carboxamide] | 7.6 µM | 100 µM | 308 nM |  |  |
| O=C(NCc1cnc(Cl)s1)N1CC2(CCN(C/C=C/c3ccc(Cl)cc3)CC2)c2c(OC(F)(F)F)ccc(Cl)c21 [Example 57, (E)-7-chloro-1′-(3-(4-chlorophenyl)allyl)-N-((2-chlorothiazol-5-yl)methyl)-4-(trifluoromethoxy)spiro[indoline-3,4′-piperidine]-1-carboxamide] | 4 µM | 70 µM | 954 nM |  |  |
| CC1(C)Oc2cc3c(cc2O1)C1(CCN(C/C=C/c2ccc(Cl)c(Cl)c2)CC1)CN3C(=O)NCc1ccnc(Cl)c1 [Example 7, (E)-N-((2-chloropyridin-4-yl)methyl)-1-(3-(3,4-dichlorophenyl)allyl)-2′,2′-dimethylspiro[piperidine-4,7′-[1,3]dioxolo[4,5-f]indole]-5′(6′H)-carboxamide] |  |  | 516 nM | 10 µM | 100 µM |
| O=C(NCc1cnc(Cl)s1)N1CC2(CCN(C/C=C/c3ccc(Cl)cc3)CC2)c2c1ccc(Cl)c2Cl [Example 64, (E)-4,5-dichloro-1′-(3-(4-chlorophenyl)allyl)-N-((2-chlorothiazol-5-yl)methyl)spiro[indoline-3,4′-piperidine]-1-carboxamide] |  |  | 116 nM | 5.7 µM | 10 µM |
| N#Cc1ccc2c(c1)C1(CCN(C/C=C/c3ccc(Cl)c(Cl)c3)CC1)CN2C(=O)NCc1ccnc(F)c1 [Example 113, 5-cyano-1′-[(E)-3-(3,4-dichlorophenyl)allyl]-N-[(2-fluoro-4-pyridyl)methyl]spiro[indoline-3,4′-piperidine]-1-carboxamide] | 2.4 µM | 1 µM | 66.8 nM |  |  |
| CC(C)CNC(=O)N1CC2(CCN(C/C=C/c3ccc(Cl)c(Cl)c3)CC2)c2c1ccc1scnc21 [Example 31, (E)-1-(3-(3,4-dichlorophenyl)allyl)-N-isobutylspiro[piperidine-4,8′-thiazolo[4,5-e]indole]-6′(7′H)-carboxamide] | 3.3 µM | 100 µM | 846 nM |  |  |
| COc1ccc2c(c1)C1(CCN(C/C=C/c3ccc(Cl)c(Cl)c3)CC1)CN2C(=O)NCc1ccnc(Cl)c1 [Example 167, (E)-N-((2-chloropyridin-4-yl)methyl)-1′-(3-(3,4-dichlorophenyl)allyl)-5-methoxyspiro[indoline-3,4′-piperidine]-1-carboxamide] |  |  | 184 nM | 33 µM | 6.9 µM |
| O=C(NCC1CCCC1)N1CC2(CCN(C/C=C/c3ccc(Cl)c(Cl)c3)CC2)c2c1ccc1scnc21 [Example 33, (E)-N-(cyclopentylmethyl)-1-(3-(3,4-dichlorophenyl)allyl)spiro[piperidine-4,8′-thiazolo[4,5-e]indole]-6′(7′H)-carboxamide] | 10 µM | 100 µM | 1640 nM |  |  |
| O=C(NCc1ccnc(F)c1)N1CC2(CCN(C/C=C/c3ccc(Cl)cc3)CC2)c2cc(Cl)c(Cl)cc21 [Example 70, (E)-5,6-dichloro-1′-(3-(4-chlorophenyl)allyl)-N-((2-fluoropyridin-4-yl)methyl)spiro[indoline-3,4′-piperidine]-1-carboxamide] | 7.6 µM | 3.3 µM | 252 nM |  |  |
| COc1cc(CNC(=O)N2CC3(CCN(C/C=C/c4ccc(C(F)(F)F)cc4)CC3)c3cc(Cl)ccc32)ccn1 [Example 183, (E)-5-chloro-N-((2-methoxypyridin-4-yl)methyl)-1′-(3-(4-(trifluoromethyl)phenyl)allyl)spiro[indoline-3,4′-piperidine]-1-carboxamide] | 3.3 µM | 10 µM | 184 nM |  |  |
| O=C(NCc1ccnc(Cl)c1)N1CC2(CCN(C/C=C/c3ccc(OC(F)(F)F)cc3)CC2)c2ccc(C(F)(F)F)cc21 [Example 130, (E)-N-((2-chloropyridin-4-yl)methyl)-1′-(3-(4-(trifluoromethoxy)phenyl)allyl)-6-(trifluoromethyl)spiro[indoline-3,4′-piperidine]-1-carboxamide] | 18.2 µM | 1.8 µM | 193 nM |  |  |
| O=C(NCc1ccnc(F)c1)N1CC2(CCN(C/C=C/c3ccc(Cl)cc3)CC2)c2cc(Br)ccc21 [Example 105, 5-bromo-1′-[(E)-3-(4-chlorophenyl)allyl]-N-[(2-fluoro-4-pyridyl)methyl]spiro[indoline-3,4′-piperidine]-1-carboxamide] | 3.3 µM | 3.3 µM | 32.2 nM |  |  |
